One experiment addresses T1, MAO-A (Homo sapiens, UniProt P21397).
T1 sequence (P21397 1-527): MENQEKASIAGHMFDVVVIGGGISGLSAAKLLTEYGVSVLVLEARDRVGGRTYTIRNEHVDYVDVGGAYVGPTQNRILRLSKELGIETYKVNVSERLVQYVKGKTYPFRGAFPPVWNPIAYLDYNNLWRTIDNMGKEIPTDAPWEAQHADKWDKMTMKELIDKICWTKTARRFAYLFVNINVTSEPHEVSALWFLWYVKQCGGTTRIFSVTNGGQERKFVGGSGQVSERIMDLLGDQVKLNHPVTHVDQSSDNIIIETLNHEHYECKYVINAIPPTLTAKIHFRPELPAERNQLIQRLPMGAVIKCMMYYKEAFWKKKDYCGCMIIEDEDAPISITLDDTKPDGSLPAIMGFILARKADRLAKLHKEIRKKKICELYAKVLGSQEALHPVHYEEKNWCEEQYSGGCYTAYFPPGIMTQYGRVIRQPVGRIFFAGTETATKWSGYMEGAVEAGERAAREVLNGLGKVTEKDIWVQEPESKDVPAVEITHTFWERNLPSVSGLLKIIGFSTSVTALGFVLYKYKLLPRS
Description: MAO-A inhibition assay. The format is biochemical. To be noted: 20 min pre-incubation; 10 μM = highest concentration tested; read-out: Enzymatic Assays IC50 MAO-A. As for the experimental part: D. MAO-A and MAO-B inhibition assays: MAO assays included luminogenic MAO substrate, reaction buffers, Luciferin Detection, and a reconstitution buffer with esterase. The MAO reaction mixture used in the assay included microsome contained MAO-A (2 μg) or MAO-B (10 μg), 160 μM substrate for MAO-A or 16 μM substrate for MAO-B, MAO-A buffer (100 mM Hepes buffer, pH 7.5, 5% glycerol) or MAO-B buffer (100 mM Hepes, pH 7.5, 5% glycerol, 10% dimethyl sulfoxide) in a final volume of 30 μL. After 20 minutes of pre-incubation of the MAO-A or MAO-B enzyme with the test ALDH-2 inhibitor compound, the reaction was initiated by adding enzyme substrate and the […] reaction was allowed to proceed for 60 minutes. Reconstituted Luciferin Detection Reagent (30 μL) was then added is added to simultaneously stop the MAO reaction and convert the methyl ester derivative to luciferin and produce light. The amount of light produced is directly proportional to the activity of MAO. The mixtures were further incubated for 20 minutes and activity of the enzyme was determined using Perkin-Elmer Envision Reader.

For the next experiment, the target named is T2, recombinant human ALDH-1 (Homo sapiens, UniProt P00352).
T2 sequence (P00352 1-501): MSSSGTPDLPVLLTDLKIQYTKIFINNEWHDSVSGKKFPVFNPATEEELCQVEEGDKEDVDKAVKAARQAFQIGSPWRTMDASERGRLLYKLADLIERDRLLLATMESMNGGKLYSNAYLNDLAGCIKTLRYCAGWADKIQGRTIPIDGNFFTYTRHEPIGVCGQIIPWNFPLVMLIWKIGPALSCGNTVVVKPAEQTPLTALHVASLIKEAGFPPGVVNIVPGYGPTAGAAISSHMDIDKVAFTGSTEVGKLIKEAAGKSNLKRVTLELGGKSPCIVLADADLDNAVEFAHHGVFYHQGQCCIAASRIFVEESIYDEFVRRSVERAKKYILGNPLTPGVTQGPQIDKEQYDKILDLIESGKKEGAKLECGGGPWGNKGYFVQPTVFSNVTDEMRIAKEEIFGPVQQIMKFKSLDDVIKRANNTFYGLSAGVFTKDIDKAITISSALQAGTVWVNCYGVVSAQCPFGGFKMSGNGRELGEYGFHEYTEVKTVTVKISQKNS
Briefly: ALDH-1 inhibition assay. Particulars: 60 min pre-incubation; 10 μM = highest concentration tested; read-out: Enzymatic Assays IC50 ALDH-1. The format is biochemical.

IC50 data for six compounds are collected here from US12637427B2, “ALDH-2 inhibitor compounds and methods of use” (Amygdala Neurosciences, Inc., priority 2022, dated 2026).

Structures are written as SMILES.

Description for recombinant human ALDH-1: B. ALDH-1 inhibition assay: The ALDH-1 reaction mixture used in the assay contained 100 μM formaldehyde, 2.5 mM NAD+, 20 mM NaCl, 10 mM MgCl2, 1 mM dithiothreitol (DTT; reducing agent), and 50 nM recombinant human ALDH-1 in 50 mM Hepes buffer, pH 7.5 in a final volume of 10 μL using 384-well Corning 3820 plates. After 60 min of pre-incubation of the test ALDH-2 inhibitor compound with ALDH-1, the reaction was started by adding NAD+ and formaldehyde and the assay reaction mixture was allowed to proceed for 60 minutes. Activity of the ALDH-1 enzyme was determined by monitoring NADH formation using Perkin-Elmer Envision Reader with excitation and emission wavelengths set at 340 and 460 nm, respectively.

As to `Cc1cccc(Cl)c1C(=O)NCc1ccc(-c2cccc(=O)[nH]2)cc1` [(1a), 2-Chloro-6-methyl-N-(4-(6-oxo-1,6-dihydropyridin-2-yl)benzyl)benzamide], the half-inhibitory concentration (IC50) at MAO-A and at recombinant human ALDH-1 was > 10 µM in each case.

For `O=C(NCc1ccc(-c2cccc(=O)[nH]2)cc1)c1ccccc1Cl` [(1b), 2-Chloro-N-(4-(6-oxo-1,6-dihydropyridin-2-yl)benzyl)benzamide], the IC50 at MAO-A and at recombinant human ALDH-1 was > 10 µM throughout.

Take `Cc1nccc(Cl)c1C(=O)NCc1ccc(-c2cccc(=O)[nH]2)cc1` [(1c), 4-Chloro-2-methyl-N-(4-(6-oxo-1,6-dihydropyridin-2-yl)benzyl)nicotinamide]: the IC50 on MAO-A and on recombinant human ALDH-1 was > 10 µM throughout.

In the case of `Cc1nccc(Br)c1C(=O)NCc1ccc(-c2[nH]c(=O)ccc2F)cc1` [(1g), 4-Bromo-N-(4-(3-fluoro-6-oxo-1,6-dihydropyridin-2-yl)benzyl)-2-methylnicotinamide], the half-maximal inhibitory concentration (IC50) at MAO-A and on recombinant human ALDH-1 was > 10 µM in each case.

As to `Cc1cccc(Cl)c1C(=O)NCc1ccc(-c2cccc(=O)[nH]2)nc1` [(1k), 2-Chloro-6-methyl-N-((6′-oxo-1′,6′-dihydro-[2,2′-bipyridin]-5-yl)methyl)benzamide], the IC50 on MAO-A and at recombinant human ALDH-1 was > 10 µM throughout.

Consider `O=C(NCc1ccc(-c2cccc(=O)[nH]2)nc1)c1ccccc1Cl` [(1l), 2-chloro-N-((6′-oxo-1′,6′-dihydro-[2,2′-bipyridin]-5-yl)methyl)benzamide], for which the 50% inhibitory concentration (IC50) at MAO-A and on recombinant human ALDH-1 was > 10 µM in each case.
